Each molecule was assayed against T1, 1-deoxy-D-xylulose 5-phosphate reductoisomerase (Escherichia coli (strain K12), UniProt P45568) (assay: Inhibition Assay). Conditions: pH 8; 37 °C.
T1 sequence (P45568 whole entry): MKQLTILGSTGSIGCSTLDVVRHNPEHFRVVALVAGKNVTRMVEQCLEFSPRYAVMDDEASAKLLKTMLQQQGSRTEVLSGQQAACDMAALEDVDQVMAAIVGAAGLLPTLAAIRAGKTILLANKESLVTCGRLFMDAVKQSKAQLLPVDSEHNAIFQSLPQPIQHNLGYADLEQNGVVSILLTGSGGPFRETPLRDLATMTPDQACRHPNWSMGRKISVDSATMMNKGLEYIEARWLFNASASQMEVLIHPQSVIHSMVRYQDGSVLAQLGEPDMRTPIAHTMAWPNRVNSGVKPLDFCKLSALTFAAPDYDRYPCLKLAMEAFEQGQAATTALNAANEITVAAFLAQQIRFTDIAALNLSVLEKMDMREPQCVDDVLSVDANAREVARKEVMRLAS
Description: The assay was monitored spectrophotometrically through the consumption of beta-NADPH. The inhibitor assays contained inhibitor at concentrations of 0.1-15 mM cyclic analogues and 5-35 mM phosphonic acid derivates.

Q: Which Ki does the source give for `NCCCP(=O)(O)O` [Phosphate analogue, 8] here?
A: Its Ki is 4 mM.

Q: For `CC(=O)NCCCP(=O)(O)O` [Phosphate analogue, 9], which Ki is on record?
A: Its Ki is 6.5 mM.

Q: How did the Ki turn out when `O=C1OC[C@@H](COP(=O)(O)O)N1O` [Phosphate analogue, (s)-14] was run?
A: Its Ki is 0.75 mM.

Q: `O=C1N[C@H](COP(=O)(O)O)CO1` [Phosphate analogue, (S)-21] was tested. Which Ki did it give?
A: Its Ki is 4.1 mM.

— BindingDB's records for doi:10.1002/cbic.200500061 (University of Bristol, 2005)
